Data published in patent US20230339945A1, “METHOD FOR PREPARING A CHELATING LIGAND DERIVED FROM PCTA” (GUERBET, priority 2020, published 2023).
Blank lines part the entries; values can stand above or below the molecule they belong to.

Assays:
[1] = formation of the gadolinium complex; as described in WO 2014/174120, DOTA-Gd for comparison; cited from earlier work
[2] = decomplexation kinetics (kinetic inertia) in acidic aqueous solution, pH 1.2, 37° C.; type: physicochemical; conditions: same conditions (pH 1.2, 37° C.); linear gadolinium complexes
Description: What is more, iso4 is the group of isomers which has the best kinetic inertia (also known as the kinetic stability) among the four groups isolated by the inventors. Specifically, the inventors evaluated the kinetic inertia of the four groups of isomers by studying their decomplexation kinetics in acidic aqueous solution (pH=1.2), at 37° C. The half-life time values (T1/2) which were determined for each of the groups of isomers are indicated in table 1 below, the half-life time corresponding to the time after which 50% of the amount of complex initially present has been dissociated, according to the following decomplexation reaction (equation 2): […]

[3] = formulation tests (concentrations of trometamol and of free ligand); type: physicochemical
Description: Various concentrations of trometamol from 0 to 100 mM were tested.
Various concentrations of macrocyclic ligand of formula (L) from 0 to 2.5 mM were tested.

SMILES: O=C([O-])CN1CCN(CC(=O)[O-])CCN(CC(=O)O)CCN(CC(=O)[O-])CC1.[Gd+3] [DOTA-Gd, gadolinium complex of 1,4,7,10-tetraazacyclododecane-N,N′,N″,N′″-tetraacetic acid]
- log (Ktherm), stability constant [1]: 25.6

SMILES: O=C([O-])CN(CCN(CC(=O)[O-])CC(=O)[O-])CCN(CC(=O)[O-])CC(=O)[O-].[Gd+3] [gadopentetate]
- kinetic inertia, dissociation in words [2]: dissociate instantaneously

SMILES: NC(CO)(CO)CO [trometamol, Tris(hydroxymethyl)aminomethane]
- pH stability of the formulation ([3]; content of 10 mM (0.12% w/v), 0 to 100 mM tested): sufficient to ensure the pH stability of the formulation

Second part, the molecule after the results:

- kinetic inertia, dissociation in words [2]: dissociate instantaneously
SMILES: CNC(=O)CN(CCN(CCN(CC(=O)[O-])CC(=O)NC)CC(=O)[O-])CC(=O)[O-].[Gd+3] [gadodiamide]

- release of free Gd during the process and during the lifetime of the product ([3]; content of 1 mM (0.08% m/v or 0.2 mol/mol %), 0 to 2.5 mM tested): absence of release of free Gd
SMILES: O=C(CCC(C(=O)O)N1CCN(C(CCC(=O)NCC(O)CO)C(=O)O)Cc2cccc(n2)CN(C(CCC(=O)NCC(O)CO)C(=O)O)CC1)NCC(O)CO (centres unmarked) [macrocyclic ligand of formula (L)]
